Consider 1 molecule from patent US7709526B2, “Use of cyclolignans and new cyclolignans” (Biovitrum AB, priority 2001, dated 2010).

Series [1] concerns HL60/Nov acute myeloid leukemia cells (cytostatic-resistant). The experiment in a line: Viability of leukemia cells, HL60/Nov. The class given is cell-based, human. Conditions: Homo sapiens, HL-60, 72 h, read-out: IC50 for viability of leukemia cell lines. The method, then:
The human chronic myeloid leukemia K562/S and K562/Vcr30 lines and the acute myeloid leukemia cell lines HL60/0 and HL60/Nov were obtained from ATCC. The K562/S and HL60/0 are wild type (non-resistant) cells, whereas K562/Vcr30 and HL60/Nov are cytostatic-resistant sublines. All leukemia cell lines were cultured in RPMI 1640 medium supplemented with 10% fetal bovine serum and with 2 mM glutamine, 1% benzyl-penicillin and streptomycin. The cells were grown in tissue culture flasks maintained at 95% air/5% CO2 atmosphere at 37° C. in a humidified incubator. For the experiments 25,000 cells were cultured in 60-mm plastic dishes or 96-well plastic plates. The experiments on leukemia cells were performed in collaboration with Associate professor Sigurd Vitols, Department of Pharmacology, Karolinska Hospital (Stockholm, Sweden).
(§1) Cell proliferation kit II (Roche Inc.) is based on calorimetric change of the yellow tetrazolium salt XTT in orange formazan dye by the respiratory chain of viable cells (Roehm, N W, et al., J Immunol Methods 142:257-265, 1991). Cells seeded at a concentration of 5000/well in 100 μl medium in a 96-well plate were treated with different drugs in the given concentration. After 24 or 48 h the cells were incubated, according to the manufacturer's protocol, with XTT labelling mixture. After 4 h the formazan dye is quantified using a scanning multiwell spectrophotometer with a 495-nm filter. The absorbance is directly correlated with number of viable cells. The standard absorbance curve was drawn by means of untreated cells seeded at a concentration of from 1000 to 10 000 cells/well with an increasing rate of 1000 cells/well. All standards and experiments were performed in triplicates.
The leukemia cell lines K562/S, K562/Vcr 30, HL60/0 and HL60/Nov were proven to express the IGF-1R. This was assayed by Western blotting analysis, as described in Methods and Experiment 1 and 2. The 4 leukemia cell lines were seeded in 96-well plates (medium volume in a well was 100 μl), in RPMI40 medium supplemented with fetal calf serum. After 24 h podophyllotoxin, deoxypodophyllotoxin and other derivatives were added at different concentrations for 72 h. Cell viability was then assayed (see above). IC50 values for each inhibitor and cell lines are shown below (Table 5). The results are based on 3 different experiments.

In a further series the test system is FM55 melanoma cells. The experiment in a line: Cell viability (XTT), FM55. Format: cell-based, human. The following applies: Homo sapiens. The method, then:
as §1
5 different types of cell lines were seeded in 96-well plates (medium volume in a well was 100 μl), at a concentration of 10,000 cells/cm^2 in Minimal Essential Medium supplemented with fetal calf serum. When the cells had reached a concentration of 65,000 cells/cm^2, they were treated with different doses of podophyllotoxin and deoxypodophyllotoxin for 48 h. Cell viability was then assayed (see above). IC50 values for each inhibitor and cell line, calculated as the concentration, resulting in a 50% decrease in cell survival, are shown below. The results are based on 4 different experiments.
FM55 melanoma cells were cultured in the same way as described in Experiment 3 and were treated with different doses of podophyllotoxin analogues as described in Experiment 3.

The next series relates to malignant cells. The experiment in a line: Cell death in malignant cells. The class given is cell-based.
The target of series [2] is receptor of epidermal growth factor (Homo sapiens, UniProt P00533). Briefly: Tyrosine phosphorylation of epidermal growth factor receptor. The class given is cell-based.
A further series deals with microtubules. Conditions: cell free systems; cited from earlier work.
Another series relates to rats. Conditions: cited from earlier work.

Structures are written as SMILES. Where two headings read alike, the source gives them in different places.

Chain of receptor of epidermal growth factor (P00533 25-1210): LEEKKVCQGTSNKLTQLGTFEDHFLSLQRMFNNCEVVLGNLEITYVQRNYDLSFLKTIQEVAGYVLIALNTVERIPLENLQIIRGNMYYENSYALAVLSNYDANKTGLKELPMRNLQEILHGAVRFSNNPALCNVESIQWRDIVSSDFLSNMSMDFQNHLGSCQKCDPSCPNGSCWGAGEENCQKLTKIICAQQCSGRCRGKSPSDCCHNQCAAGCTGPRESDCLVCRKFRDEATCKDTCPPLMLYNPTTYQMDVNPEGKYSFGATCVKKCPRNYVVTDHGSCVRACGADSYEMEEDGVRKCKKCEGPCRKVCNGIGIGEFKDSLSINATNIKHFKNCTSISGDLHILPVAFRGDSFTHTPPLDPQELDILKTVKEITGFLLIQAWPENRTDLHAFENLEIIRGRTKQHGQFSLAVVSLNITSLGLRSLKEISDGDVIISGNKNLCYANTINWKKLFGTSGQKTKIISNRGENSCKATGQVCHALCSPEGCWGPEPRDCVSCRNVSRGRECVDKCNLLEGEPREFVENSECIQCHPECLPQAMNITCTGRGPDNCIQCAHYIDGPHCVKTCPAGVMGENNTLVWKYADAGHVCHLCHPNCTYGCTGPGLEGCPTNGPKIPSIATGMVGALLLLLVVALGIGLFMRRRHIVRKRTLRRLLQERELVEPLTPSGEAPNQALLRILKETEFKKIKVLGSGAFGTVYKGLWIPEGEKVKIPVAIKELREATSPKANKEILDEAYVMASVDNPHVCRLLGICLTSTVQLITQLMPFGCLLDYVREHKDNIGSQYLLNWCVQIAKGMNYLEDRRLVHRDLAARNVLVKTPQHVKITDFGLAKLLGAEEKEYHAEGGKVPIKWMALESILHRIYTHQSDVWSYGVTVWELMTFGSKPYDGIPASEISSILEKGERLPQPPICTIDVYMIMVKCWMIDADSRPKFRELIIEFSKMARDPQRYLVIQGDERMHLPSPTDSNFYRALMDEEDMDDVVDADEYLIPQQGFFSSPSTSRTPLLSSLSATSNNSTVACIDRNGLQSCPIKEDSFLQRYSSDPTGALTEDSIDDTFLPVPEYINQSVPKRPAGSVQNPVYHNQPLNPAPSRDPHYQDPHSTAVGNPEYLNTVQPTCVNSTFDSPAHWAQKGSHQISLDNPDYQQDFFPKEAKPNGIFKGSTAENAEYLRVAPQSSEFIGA

The term IC50 denotes the point on the concentration scale where inhibition reaches its midpoint. For `COc1cc([C@@H]2c3cc4c(cc3[C@H](O)[C@H]3COC(=O)[C@H]23)OCO4)cc(OC)c1OC` [Podophyllotoxin, podophyllotoxin], the IC50 was 2 nM in series [1]; 50 nM in the series with FM55 melanoma cells (FM55, Experiment 4 (Table 4), read-out: IC50 for viability of FM55 cells); 40 nM with FM55 melanoma cells (FM55, melanoma, 48 h (Table 3), read-out: IC50 for cell viability). Further, the “cell death in malignant cells (in words)” value with malignant cells was “extensive cell death”. In addition, the “interference with tyrosine phosphorylation of the receptor of epidermal growth factor” value in series [2] is “Neither do they interfere”. Besides, the effect on microtubules entry with microtubules was “required μM concentrations”. The LD50 in rats with rats is listed as 14 mg/kg.
